This test deals with T1, Nav1.7 voltage-gated sodium channel (Homo sapiens, UniProt Q15858).
T1 construct: Gene(s) encoding the full-length protein of the voltage-gated sodium channel of interest are cloned and expressed; expressed in transfected cells
T1 sequence (Q15858 whole entry): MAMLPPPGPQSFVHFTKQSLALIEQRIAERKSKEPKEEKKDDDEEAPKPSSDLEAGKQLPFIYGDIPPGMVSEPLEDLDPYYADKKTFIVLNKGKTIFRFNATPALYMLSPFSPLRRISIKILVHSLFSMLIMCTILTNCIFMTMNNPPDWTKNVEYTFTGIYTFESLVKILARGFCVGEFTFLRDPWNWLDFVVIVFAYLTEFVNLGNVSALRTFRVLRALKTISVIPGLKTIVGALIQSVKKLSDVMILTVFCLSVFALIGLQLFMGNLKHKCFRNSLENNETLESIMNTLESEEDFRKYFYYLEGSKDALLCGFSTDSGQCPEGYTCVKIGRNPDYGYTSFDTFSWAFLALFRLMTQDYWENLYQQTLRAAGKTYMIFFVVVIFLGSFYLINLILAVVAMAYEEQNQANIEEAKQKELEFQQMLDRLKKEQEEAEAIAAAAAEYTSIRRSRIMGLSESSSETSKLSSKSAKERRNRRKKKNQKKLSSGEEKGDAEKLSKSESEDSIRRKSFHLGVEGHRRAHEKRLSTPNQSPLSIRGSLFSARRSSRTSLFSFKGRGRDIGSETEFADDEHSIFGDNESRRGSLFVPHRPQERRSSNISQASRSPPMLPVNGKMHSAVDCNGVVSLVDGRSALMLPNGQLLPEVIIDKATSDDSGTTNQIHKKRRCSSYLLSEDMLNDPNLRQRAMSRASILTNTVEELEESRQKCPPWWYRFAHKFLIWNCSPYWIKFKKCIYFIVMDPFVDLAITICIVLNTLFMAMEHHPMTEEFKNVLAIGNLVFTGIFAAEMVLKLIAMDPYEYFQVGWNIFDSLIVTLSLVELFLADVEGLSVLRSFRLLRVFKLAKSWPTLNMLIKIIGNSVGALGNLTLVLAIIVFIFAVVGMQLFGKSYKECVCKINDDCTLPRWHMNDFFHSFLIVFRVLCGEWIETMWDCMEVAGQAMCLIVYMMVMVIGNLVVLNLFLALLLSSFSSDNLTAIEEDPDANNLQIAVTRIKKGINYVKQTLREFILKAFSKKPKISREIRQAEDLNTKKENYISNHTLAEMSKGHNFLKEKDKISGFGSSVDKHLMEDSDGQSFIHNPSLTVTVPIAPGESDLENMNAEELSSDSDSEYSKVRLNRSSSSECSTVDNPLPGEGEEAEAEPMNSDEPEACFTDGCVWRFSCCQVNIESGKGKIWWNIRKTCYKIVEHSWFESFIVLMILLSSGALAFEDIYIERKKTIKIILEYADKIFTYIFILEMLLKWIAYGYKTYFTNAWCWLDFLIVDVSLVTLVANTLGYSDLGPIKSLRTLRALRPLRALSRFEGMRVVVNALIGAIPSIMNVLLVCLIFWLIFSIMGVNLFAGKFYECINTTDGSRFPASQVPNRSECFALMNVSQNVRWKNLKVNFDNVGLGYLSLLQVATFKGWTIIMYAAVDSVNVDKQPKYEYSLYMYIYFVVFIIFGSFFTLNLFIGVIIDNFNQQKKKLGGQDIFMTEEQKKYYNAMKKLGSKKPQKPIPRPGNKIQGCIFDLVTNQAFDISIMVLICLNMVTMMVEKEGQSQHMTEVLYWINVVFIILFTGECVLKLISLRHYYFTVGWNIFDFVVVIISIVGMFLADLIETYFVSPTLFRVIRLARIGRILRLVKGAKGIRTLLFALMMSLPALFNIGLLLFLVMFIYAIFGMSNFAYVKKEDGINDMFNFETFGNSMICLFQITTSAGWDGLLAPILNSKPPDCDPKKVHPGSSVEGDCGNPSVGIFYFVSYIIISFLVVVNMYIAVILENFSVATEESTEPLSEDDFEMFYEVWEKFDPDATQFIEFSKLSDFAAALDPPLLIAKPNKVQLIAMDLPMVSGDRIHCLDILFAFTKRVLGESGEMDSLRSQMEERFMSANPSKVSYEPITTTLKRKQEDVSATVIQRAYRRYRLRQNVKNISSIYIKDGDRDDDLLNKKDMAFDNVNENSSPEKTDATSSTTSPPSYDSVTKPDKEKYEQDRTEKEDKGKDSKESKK
Description: Whole-cell voltage clamp electrophysiology assay. It is filed as cell-based. Particulars: cells stably expressing the voltage-gated sodium channel of interest. An excerpt:
Gene(s) encoding the full-length protein of the voltage-gated sodium channel of interest are cloned and expressed under a suitable promoter in a suitable cell line, as well known in the art. […] Suitable screening assays are as follows.
Electrophysiological studies can be performed using automated patch-clamp electrophysiology platforms, like IonWorks HT, IonWorks Quattro, PatchXpress, QPatch or any other suitable platform. […] Suitable extracellular and intracellular buffer for such experiments are applied according to the instructions given by the manufacturer of the automated patch-clamp platforms. Cells that express the voltage-gated sodium channel protein of interest are exposed to drugs through the pipetting system integrated in the platforms. A suitable voltage stimulus protocol is used to activate the voltage-gated sodium channel proteins of interest through depolarisation from a defined holding potential.
Electrophysiological studies can also be performed using the whole cell configuration of the standard patch clamp technique. In this assay, cells that express the voltage-gated sodium channel protein of interest are exposed to the drugs by conventional microperfusion systems and a suitable voltage stimulus protocol is used to activate the voltage-gated sodium channels.
As to `COCCOc1ccc(C(=O)N[C@@H]2COc3cccc(-c4ccnc(OC)c4)c3C2)cn1` [Example 140, 6-(2-methoxyethoxy)-N-[(3S)-5-(2-methoxypyridin-4-yl)-3,4-dihydro-2H-chromen-3-yl]nicotinamide], the IC50 was 631 nM.
Regarding `CCOc1ncc(-c2cccc3c2C[C@H](NC(=O)c2ccc(OCC(F)(F)F)nc2)CO3)cn1` [Example 93, N-[(3S)-5-(2-ethoxypyrimidin-5-yl)-3,4-dihydro-2H-chromen-3-yl]-6-(2,2,2-trifluoroethoxy)nicotinamide], inhibition was half-maximal at 631 nM (IC50).
In the case of `Cc1nn(CC(C)C)nc1C(=O)N[C@@H]1COc2cccc(-c3cccnc3)c2C1` [Example 52, 2-isobutyl-5-methyl-N-[(3S)-5-pyridin-3-yl-3,4-dihydro-2H-chromen-3-yl]-2H-1,2,3-triazole-4-carboxamide], the IC50 is 3980 nM.
`O=C(N[C@@H]1COc2cccc(-c3ccncc3)c2C1)c1cnc(OC2CCCC2)nc1` [Example 28, 2-(cyclopentyloxy)-N-[(3S)-5-pyridin-4-yl-3,4-dihydro-2H-chromen-3-yl]Pyrimidine-5-carboxamide]: it took 100 nM to reach half-maximal inhibition (IC50).
The same measure for `Cc1nn(-c2ccccc2)nc1C(=O)N[C@@H]1CCc2cccc(-c3ccncc3)c2C1` [Example 17, 5-methyl-2-phenyl-N-[(2R)-8-pyridin-4-yl-1,2,3,4-tetrahydronaphthalen-2-yl]-2H-1,2,3-triazole-4-carboxamide]: 3980 nM; for `Cc1ncc(-c2cccc3c2C[C@H](NC(=O)c2ccnc(OC(C)C)c2)CO3)cn1` [Example 104, 2-isopropoxy-N-[(3S)-5-(2-methylpyrimidin-5-yl)-3,4-dihydro-2H-chromen-3-yl]isonicotinamide]: 2510 nM; for `COCCOc1ccc(C(=O)N[C@@H]2CCc3cccc(-c4cccnc4F)c3C2)cn1` [Example 144, N-[(2R)-8-(2-fluoropyridin-3-yl)-1,2,3,4-tetrahydronaphthalen-2-yl]-6-(2-methoxyethoxy)nicotinamide]: 3160 nM.
Regarding `O=C(N[C@@H]1COc2cccc(-c3cnc(C4CC4)nc3)c2C1)c1ccc(C(=O)NCCC(F)(F)F)nc1` [Example 197, N^5-[(3S)-5-(2-cyclopropylpyrimidin-5-yl)-3,4-dihydro-2H-chromen-3-yl]-N^2-(3,3,3-trifluoropropyl)pyridine-2,5-dicarboxamide], the half-maximal inhibitory concentration (IC50) was 158 nM.
The same measure for `O=C(N[C@@H]1COc2cccc(-c3ccncc3)c2C1)c1ccc(OCc2nccs2)nc1` [Example 114, N-[(3S)-5-pyridin-4-yl-3,4-dihydro-2H-chromen-3-yl]-6-(1,3-thiazol-2-ylmethoxy)nicotinamide]: 1000 nM; for `O=C(N[C@@H]1COc2cccc(-c3cccnc3)c2C1)c1ccc2cccnc2n1` [Example 45, N-[(3S)-5-pyridin-3-yl-3,4-dihydro-2H-chromen-3-yl]-1,8-naphthyridine-2-carboxamide]: 1260 nM; for `CN(CC(F)(F)F)C(=O)c1ccc(C(=O)N[C@@H]2COc3cccc(-c4cnc(C5CC5)nc4)c3C2)cn1` [Example 196, N^5-[(3S)-5-(2-cyclopropylpyrimidin-5-yl)-3,4-dihydro-2H-chromen-3-yl]-N^2-methyl-N^2-(2,2,2-trifluoroethyl)pyridine-2,5-dicarboxamide]: 501 nM.
Then `O=C(N[C@@H]1CCc2cccc(-c3cccnc3F)c2C1)c1ccc(OCC(F)(F)F)nc1` [Example 87, N-[(2R)-8-(2-fluoropyridin-3-yl)-1,2,3,4-tetrahydronaphthalen-2-yl]-6-(2,2,2-trifluoroethoxy)nicotinamide], with 200 nM.
Then `N#Cc1ccc(-c2cccc3c2C[C@H](NC(=O)c2ccc(OCCOCC(F)(F)F)nc2)CO3)cn1` [Example 176, N-[(3S)-5-(6-cyanopyridin-3-yl)-3,4-dihydro-2H-chromen-3-yl]-6-[2-(2,2,2-trifluoroethoxy)ethoxy]nicotinamide], with 126 nM; and `Cc1nn(-c2ccccc2)nc1C(=O)N[C@@H]1CCc2cccc(-c3cnn(C)c3)c2C1` [Example 8, 5-Methyl-N-[(2R)-8-(1-methyl-1H-pyrazol-4-yl)-1,2,3,4-tetrahydronaphthalen-2-yl]-2-phenyl-2H-1,2,3-triazole-4-carboxamide], with 1580 nM; and `Cc1ncc(-c2cccc3c2C[C@H](NC(=O)c2ccc(C(=O)NCCCC(F)(F)F)nc2)CO3)cn1` [Example 188, N^5-[(3S)-5-(2-methylpyrimidin-5-yl)-3,4-dihydro-2H-chromen-3-yl]-N^2-(4,4,4-trifluorobutyl)pyridine-2,5-dicarboxamide], with 251 nM.
`COc1ncc(-c2cccc3c2C[C@H](NC(=O)c2ccc(OC4CCOCC4)nc2)CO3)cc1C(=O)N(C)C` [Example 204, 2-methoxy-N,N-dimethyl-5-[(3S)-3-({[6-(tetrahydro-2H-pyran-4-yloxy)pyridin-3-yl]carbonyl}amino)-3,4-dihydro-2H-chromen-5-yl]nicotinamide] had an IC50 of 7940 nM.
In turn, `O=C(N[C@@H]1COc2cccc(-c3cnc(C4CC4)nc3)c2C1)c1ccn(CCC(F)(F)F)c(=O)c1` [Example 199, N-[(3S)-5-(2-cyclopropylpyrimidin-5-yl)-3,4-dihydro-2H-chromen-3-yl]-2-oxo-1-(3,3,3-trifluoropropyl)-1,2-dihydropyridine-4-carboxamide] showed an IC50 of 501 nM.
In turn, `O=C(N[C@@H]1COc2cccc(-c3cccnc3)c2C1)c1cnc(OC2CCOCC2)cn1` [Example 133, N-[(3S)-5-pyridin-3-yl-3,4-dihydro-2H-chromen-3-yl]-5-(tetrahydro-2H-pyran-4-yloxy)pyrazine-2-carboxamide] had an IC50 of 794 nM.
The same measure for `COc1cnc(C(=O)N[C@@H]2COc3cccc(-c4cccnc4)c3C2)cn1` [Example 44, 5-methoxy-N-[(3S)-5-pyridin-3-yl-3,4-dihydro-2H-chromen-3-yl]pyrazine-2-carboxamide]: 631 nM; for `O=C(N[C@@H]1COc2cccc(-c3cccnc3)c2C1)c1ccc2ncccc2n1` [Example 46, N-[(3S)-5-pyridin-3-yl-3,4-dihydro-2H-chromen-3-yl]-1,5-naphthyridine-2-carboxamide]: 3160 nM.
On to `Cc1noc(C)c1-c1cccc2c1C[C@H](NC(=O)c1cnc(OC3CCCC3)nc1)CC2` [Example 33, 2-(cyclopentyloxy)-N-[(2R)-8-(3,5-dimethylisoxazol-4-yl)-1,2,3,4-tetrahydronaphthalen-2-yl]pyrimidine-5-carboxamide], for which 316 nM corresponded to half-maximal inhibition (IC50).
The same measure for `COc1ncc(-c2cccc3c2C[C@H](NC(=O)c2ccc(OCCC(F)(F)F)nc2)CO3)cc1F` [Example 97, N-[(3S)-5-(5-fluoro-6-methoxypyridin-3-yl)-3,4-dihydro-2H-chromen-3-yl]-6-(3,3,3-trifluoropropoxy)nicotinamide]: 398 nM.
Consider `COc1ncc(-c2cccc3c2C[C@H](NC(=O)c2ccc(COCC(F)(F)F)nc2)CO3)cn1` [Example 194, N-[(3S)-5-(2-methoxypyrimidin-5-yl)-3,4-dihydro-2H-chromen-3-yl]-6-[(2,2,2-trifluoroethoxy)methyl]nicotinamide], for which the half-inhibitory concentration (IC50) was 200 nM.
With `CNC(=O)c1cc(-c2cccc3c2C[C@H](NC(=O)c2ccc(OC4CCOCC4)nc2)CO3)cnc1OC` [Example 206, 2-methoxy-N-methyl-5-[(3S)-3-({[6-(tetrahydro-2H-pyran-4-yloxy)pyridin-3-yl]carbonyl}amino)-3,4-dihydro-2H-chromen-5-yl]nicotinamide], the IC50 was 3160 nM.
`COc1ncc(-c2cccc3c2C[C@H](NC(=O)c2ccc(OC4CCC4)nc2)CO3)cn1` [Example 106, 6-(cyclobutyloxy)-N-[(3S)-5-(2-methoxypyrimidin-5-yl)-3,4-dihydro-2H-chromen-3-yl]nicotinamide] showed an IC50 of 251 nM.
`O=C(N[C@@H]1COc2cccc(-c3ccc4nccn4c3)c2C1)c1ccc(OCC(F)(F)F)nc1` [Example 91, N-[(3S)-5-imidazo[1,2-a]pyridin-6-yl-3,4-dihydro-2H-chromen-3-yl]-6-(2,2,2-trifluoroethoxy)nicotinamide] showed an IC50 of 79.4 nM.
In the case of `Cc1ncc(-c2cccc3c2C[C@H](NC(=O)c2ccc(OCCOCC(F)(F)F)nc2)CO3)cn1` [Example 189, N-[(3S)-5-(2-methylpyrimidin-5-yl)-3,4-dihydro-2H-chromen-3-yl]-6-[2-(2,2,2-trifluoroethoxy)ethoxy]nicotinamide], the half-maximal inhibitory concentration (IC50) is 79.4 nM.
Compound `CC(C)Oc1cnc(C(=O)N[C@@H]2COc3cccc(-c4cccnc4)c3C2)cn1` [Example 42, 5-isopropoxy-N-[(3S)-5-pyridin-3-yl-3,4-dihydro-2H-chromen-3-yl]pyrazine-2-carboxamide] had a 50% inhibitory concentration (IC50) of 1000 nM.
`CCc1ncc(-c2cccc3c2C[C@H](NC(=O)c2ccc(C(=O)NCCC(F)(F)F)nc2)CO3)cn1` [Example 174, N^5-[(3S)-5-(2-ethylpyrimidin-5-yl)-3,4-dihydro-2H-chromen-3-yl]-N^2-(3,3,3-trifluoropropyl)pyridine-2,5-dicarboxamide] had a half-maximal inhibitory concentration (IC50) of 200 nM.
Then `COc1ncc(-c2cccc3c2C[C@H](NC(=O)c2ccc(C(=O)NCCCC(F)(F)F)nc2)CO3)cn1` [Example 171, N^5-[(3S)-5-(2-methoxypyrimidin-5-yl)-3,4-dihydro-2H-chromen-3-yl]-N^2-(4,4,4-trifluorobutyl)pyridine-2,5-dicarboxamide], with 126 nM.

For the origin of these results see US8143408B2, “N-(8-heteroaryltetrahydronaphtalene-2yl) or N-(5-heteroarylchromane-3-yl) carboxamide derivatives for the treatment of pain” (AstraZeneca AB, priority 2007, dated 2012).
